Experimental findings from publication PMC2409895, “Antitumour efficacy of VEGFR2 tyrosine kinase inhibitor correlates with expression of VEGF and its receptor VEGFR2 in tumour models” (British Journal of Cancer, 2004) are described below.

In general, IC50 refers to the concentration at which inhibition is half-maximal. A high value points to a need for much substance. One may read the ED50 as the midpoint of the dose-response relation. Lower therefore signals an effect at a small dose.

The target of assay [1] is T1, human VEGFR kinase 1 (Homo sapiens, UniProt P17948).
T1 construct: GST-fusion protein encoding the catalytic carboxyl-terminus of human VEGFR kinase 1, 2, or 3; made in house; host or cells: baculovirus expression system
T1 sequence (P17948 827-1158 limits assumed): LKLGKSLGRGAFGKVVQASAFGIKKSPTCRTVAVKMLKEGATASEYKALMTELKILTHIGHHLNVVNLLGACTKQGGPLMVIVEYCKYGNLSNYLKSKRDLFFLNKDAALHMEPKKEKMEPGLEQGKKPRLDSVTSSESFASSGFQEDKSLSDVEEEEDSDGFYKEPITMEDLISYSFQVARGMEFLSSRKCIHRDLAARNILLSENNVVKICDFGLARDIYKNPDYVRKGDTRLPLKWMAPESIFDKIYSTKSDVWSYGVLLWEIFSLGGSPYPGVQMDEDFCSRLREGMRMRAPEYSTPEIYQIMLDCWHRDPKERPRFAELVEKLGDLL
As to the kind of experiment: VEGFR1 kinase assay (HTRF). Type of assay: biochemical. As for the experimental part:
Vascular endothelial growth factor receptor kinase assays were carried out in a homogenous time-resolved fluorescence (HTRF) format in 384-well microtitre plates using a purified, baculovirus-expressed GST-fusion protein encoding the catalytic carboxyl-terminus of human VEGFR kinase 1, 2, or 3. Reactions were initiated by the addition of 10 μl of activated VEGFR kinase (1 nM, 0.1 M HEPES pH 7.5, 0.1 mg ml^−1 BSA, and 0.30 mM DTT) to 10 μl of substrate (360 nM biotin-aminohexyl-EEEEYFELVAKKKK-NH2 peptide, 75 μM ATP, 10 mM MgCl2) and 1 μl of small molecule inhibitor at various concentrations. Plates were incubated at room temperature for 60 min, and the reaction was stopped by the addition of 20 μl 100 mM EDTA. Homogenous time-resolved fluorescence reagents (20 μl 15 nM streptavidin-linked allophycocyanin, 1 nM europium-labelled anti-phosphotyrosine antibody in 0.1 M HEPES, pH 7.5, 0.1 mg ml^−1 BSA) were added and plates were incubated for a minimum of 10 min. The fluorescence at 665 nm was measured with a Victor plate reader (Wallac, Shelton, CT, USA) using a time delay of 50 μs. […] Data were fitted with a curve described by: y=((Vmax × x)/(K+x)+Y2), where Vmax is the upper asymptote, Y2 is the Y intercept, and K is the IC50.

Assay [2] has as its target T2, SRC (Homo sapiens, UniProt P12931).
T2 construct: Each kinase assay was conducted using purified recombinant catalytic domain of the enzyme
Kind of assay: SRC kinase assay (HTRF). Type of assay: biochemical. As for the experimental part: (§1) Inhibition of several other kinases by small molecules was also determined. Each kinase assay was conducted using purified recombinant catalytic domain of the enzyme. The concentration of ATP and kinase-specific biotinylated peptide in each assay was below the apparent Km of the respective substrate. Inhibition of c-Fms, SRC, and Tie-2 was evaluated by an HTRF format and the inhibition of CDK2, CDK4, EGFR, ErbB2, and Eph-B4 was detected by scintillation proximity assay.
(In general: In TR-FRET formats the signal depends on donor and acceptor labels being close together.)

The target of assay [3] is T3, Eph-B4 (Homo sapiens, UniProt P54760).
T3 construct: Each kinase assay was conducted using purified recombinant catalytic domain of the enzyme
T3 sequence (P54760 615-899 limits assumed): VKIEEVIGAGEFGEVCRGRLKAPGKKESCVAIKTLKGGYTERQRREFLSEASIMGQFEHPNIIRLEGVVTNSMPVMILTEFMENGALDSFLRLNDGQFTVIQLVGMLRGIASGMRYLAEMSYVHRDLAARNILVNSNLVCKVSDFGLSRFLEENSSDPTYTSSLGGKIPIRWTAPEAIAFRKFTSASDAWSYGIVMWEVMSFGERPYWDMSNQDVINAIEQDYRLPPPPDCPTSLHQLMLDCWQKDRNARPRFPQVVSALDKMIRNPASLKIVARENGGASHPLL
Kind of assay: Eph-B4 kinase assay (scintillation proximity). Type of assay: biochemical. As for the experimental part:
as §1
(In general: SPA uses beads or plates that emit light when radiolabelled molecules are held near them.)

Assay [4] has as its target T4, Tie2 (Homo sapiens, UniProt Q02763).
T4 construct: Each kinase assay was conducted using purified recombinant catalytic domain of the enzyme
As to the kind of experiment: Tie-2 kinase assay (HTRF). In kind it is biochemical. As for the experimental part:
as §1

For assay [5], the target named is T5, CDK2 (Homo sapiens, UniProt P24941).
T5 construct: Each kinase assay was conducted using purified recombinant catalytic domain of the enzyme
As to the kind of experiment: CDK2 kinase assay (scintillation proximity). In kind it is biochemical. As for the experimental part:
as §1

Assay [6] has as its system HCT116 xenograft. As to the kind of experiment: HCT116 tumour xenograft growth inhibition. Type of assay: in vivo, nude mice. Particulars: for % Inhibition of tumour growth: vs vehicle. As for the experimental part: (§2) Tumours were initiated by injection of tumour cell suspension subcutaneously in 8–12-week-old nude mice, except PC3 tumours that were grown in SCID mice (Charles River Laboratories, Wilmington, MA, USA). When tumours reached a volume of 100–200 mm^3, mice were randomised into groups of eight prior to treatment with VEGFR kinase inhibitors. Animals were treated with kinase inhibitors (10, 30, or 100 mg kg^−1) or vehicle (0.5% hydroxypropyl methyl cellulose, 0.1% Tween 80 in sterile water), administered once or twice daily by oral gavage for 2–3 weeks (till the mean tumour volume reached 1000–1500 mm^3). Tumour volume was measured twice weekly by calipers, using the formula (length × width × width × 0.5), where length was the longest diameter across the tumour, and width was the corresponding perpendicular. Tumour growth inhibition was calculated by change in the slopes of tumour growth for control and treated tumours. The oral dose of GW654652 producing 50% inhibition of tumour growth (ED50, mg kg^−1) was estimated by a programme that performed a weighted nonlinear regression analysis of data using the equation: y=Vmax(1−(x/(K+x))), where K is equal to ED50. All animal studies were carried out with the appropriate institutional ethical committee approval and they met the standards of both the US federal regulations and those required by the UKCCCR guidelines ([Workman et al, 1998]).

The subject of assay [7] is SW620 xenograft. As to the kind of experiment: SW620 tumour xenograft growth inhibition. In kind it is in vivo, nude mice. Particulars: for % Inhibition of tumour growth: vs vehicle. As for the experimental part:
as §2

Assay [8] concerns PC3 xenograft. As to the kind of experiment: PC3 tumour xenograft growth inhibition. Type of assay: in vivo, SCID mice. Conditions: for % Inhibition of tumour growth: vs vehicle. As for the experimental part: as §2
In assay [9] the test system is A375P xenograft. As to the kind of experiment: A375P tumour xenograft growth inhibition. Type of assay: in vivo, nude mice. Particulars: for % Inhibition of tumour growth: vs vehicle. As for the experimental part: as §2
[10] abbreviates: ratio of IC50 of the kinase to IC50 vs VEGFR-2.

T4 sequence (Q02763 824-1096 limits assumed, species assumed): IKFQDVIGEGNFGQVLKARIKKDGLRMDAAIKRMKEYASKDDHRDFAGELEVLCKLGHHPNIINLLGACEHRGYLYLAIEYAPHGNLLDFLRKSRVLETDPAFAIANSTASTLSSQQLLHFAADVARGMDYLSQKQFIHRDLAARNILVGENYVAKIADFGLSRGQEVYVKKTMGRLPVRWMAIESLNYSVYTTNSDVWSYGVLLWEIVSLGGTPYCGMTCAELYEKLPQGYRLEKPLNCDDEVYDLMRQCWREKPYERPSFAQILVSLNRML
T2 sequence (P12931 270-523 limits assumed, species assumed): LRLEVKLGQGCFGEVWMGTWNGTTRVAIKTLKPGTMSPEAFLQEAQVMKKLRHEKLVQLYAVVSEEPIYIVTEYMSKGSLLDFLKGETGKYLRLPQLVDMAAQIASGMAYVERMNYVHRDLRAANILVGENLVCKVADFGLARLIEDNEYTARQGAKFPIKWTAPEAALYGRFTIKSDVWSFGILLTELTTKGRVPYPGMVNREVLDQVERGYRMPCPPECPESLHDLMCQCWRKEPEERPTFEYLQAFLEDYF

Take `CCS(=O)(=O)c1ccc(OC)c(Nc2nccc(N(C)c3ccc4c(C)n[nH]c4c3)n2)c1` [GW654652, N^2-[5-(ethylsulphonyl)-2-methoxyphenyl]-N^4-methyl-N^4-(3-methyl-1H-indazol-6-yl)pyrimidine-2,4-diamine]: the IC50 is 12 ± 2.6 nM in assay [1] (mean±s.e.); 350 ± 240 nM in assay [2] (mean±s.e.); 460 ± 30 nM in assay [3] (mean±s.e.); 320 ± 40 nM in [4] (mean±s.e.); greater than 20000 nM in assay [5]. Besides, in assay [1] (setting [10]), the “Fold selectivity vs VEGFR-2, VEGFR-1” value was 5.3. The “Fold selectivity vs VEGFR-2, SRC” value in assay [2] (setting [10]) was 156. Further, in [3] (setting [10]), the “Fold selectivity vs VEGFR-2, Eph-B4” value came to 204. In addition, in assay [4] (setting [10]), the “Fold selectivity vs VEGFR-2, Tie2” value turned out to be 144. Besides, the “Fold selectivity vs VEGFR-2, CDK2” value in [5] (setting [10]) was greater than 8800. Further, the “% Inhibition of tumour growth” value is on record as 18% in assay [6] (HCT116, 10 mg kg^−1 oral once daily); 59% in assay [6] (HCT116, 30 mg kg^−1 oral once daily); 71% in assay [6] (HCT116, 100 mg kg^−1 oral once daily); 12% in assay [7] (SW620, 10 mg kg^−1 oral once daily); 44% in assay [7] (SW620, 30 mg kg^−1 oral once daily); 74% in assay [7] (SW620, 100 mg kg^−1 oral once daily). Moreover, the “% Inhibition of tumour growth” value in assay [8] (PC3, 30 mg kg^−1 oral once daily) is 21%; in assay [8] (PC3, 100 mg kg^−1 oral once daily) it was 48%; in [9] (30 mg kg^−1 oral once daily) it was 14%; in assay [9] (100 mg kg^−1 oral once daily), 49%. Further, the 50% effective dose (ED50) in assay [6] (HCT116, oral dose producing 50% inhibition of tumour growth) was determined as 21 ± 8 mg/kg/day; in assay [7] (SW620, oral dose producing 50% inhibition of tumour growth), 46 ± 11 mg/kg/day; in [8] (PC3, oral dose producing 50% inhibition of tumour growth) it was 108 ± 50 mg/kg/day; in assay [9] (oral dose producing 50% inhibition of tumour growth) it was 114 ± 54 mg/kg/day.
